According to patent publication US6297281A, “Association of no syntase inhibitors with trappers of oxygen reactive forms” (priority 1996, dated 2001):
Where two headings read alike, the source gives them in different places.

Tests used:
focal cerebral ischaemia = experiment: Effect on focal cerebral ischaemia with reperfusion (transient occlusion of the middle cerebral artery); format: in vivo, rat (male Sprague-Dawley)
Experimental: Their activity was evaluated on a model of focal cerebral ischaemia in the rat. […] The effects of the combination were compared with those produced by a treatment with the inhibitor of nitrogen monoxide or the trap of reactive forms of oxygen alone.
5) Effect on focal cerebral ischaemia with reperfusion
The experiments are carried out on male Sprague-Dawley rats (Charles River) weighing between 330 and 360 g. After anaesthesia with isoflurane, the rats undergo transient occlusion of the middle cerebral artery described by Memezawa et al. (Exp. Brain Res. 89, 67-78, 1992). A wire is introduced into the anterior cerebral artery bringing about an occlusion of the middle cerebral artery. Two hours later, the wire is withdrawn so as to permit recirculation of the blood to the Willis polygon. The temperature of the animals is monitored and controlled for 6 hours after occlusion. Forty eight hours after occlusion, the rats are anlesthetised with isoflurane and decapitated. Samples of brain are taken rapidly and immersed for 2 minutes in isopentane at -15° C. Six sections 2 mm thick are obtained and placed in a solution containing 2% 2,3,5-triphenyltetrazolium chloride (TCC) for 20 min and then fixed with formalin. The infarcted zone appears white and the healthy zone red. The infarcted surface area is measured at the site of the (sections by means of an image analyser. The volume of the infarct is calculated by integrating these various surface areas in the knowledge that they are 2 mm apart. The products are administered intraperitoneally. The first treatment is carried out 4 hours after occlusion, that is, 2 hours after the w ire was withdrawn, then 24 hours afterwards.
Compound of example 1: 4 groups of animals are created:
Group 1: treated with physiol ogical serum
Group 2: treated with A (30 mg/kg)
Group 3: treated with B (20 mg/kg)
Group 4: treated with AB (50 mg/kg)
Compound of example 2: 4 groups of animals are created:
Group 1: treated with physiological serum
Group 2: treated with A (10 mg/kg)
Group 4: treated with AB (A: 10 mg/kg and B: 20 mg/kg)
Compound of example 3: 4 groups of animals are created:
Group 2: treated with A (0.03 mg/kg i.v.)
Group 3: treated with B (20 mg/kg i.p.)
Group 4: treated with AB (A: 0.03 mg/kg i.v. and B: 20 mg/kg i.p.)

constitutive NO synthase = constitutive NO synthase (Rattus norvegicus, UniProt P29476); experiment: biochemical
Experimental: 1) In vitro effect of constitutive NO synthase on the rat cerebellum
The test consists in measuring the conversion, by NO synthase, of L-arginine to L-citrulline. Samples of cerebella of Sprague-Dawley rats (300 g--Charles River) are taken rapidly, dissected at 4° C. and homogenised in a volume of extraction buffer (HEPES 50 mM, EDTA 1 mM, pH 7.4, pepstatin A […], leupeptin […]) centrifuged at 21000 g for 15 min at 4° C. The assay is carried out in glass test tubes in which are distributed […] of incubation buffer containing 100 mM of HEPES, pH 7.4, 2 mM of EDTA, 2.5 mM of CaCl2, 2 mM of dithiothreitol,2 mM of reduced NADPH and 10 µg/ml of calmodulin. […] The reaction is initiated by adding 50 μl of homogenised product, the final volume being 200 μl (the 25 μl shortfall being either water or the product being tested). After 15 min, the reaction is stopped with 2 ml of stop buffer (20 mM of HEPES, pH 5.5, 2 mM of EDTA). After passing samples over a column of 1 ml of DOWEX resin, the radioactivity is quantified by a liquid scintillation spectrometer.
The results are expressed in terms of the IC50 value and are summarised in the table of paragraph 2 (first column of results entitled "constitutive NO synthase, formation of citrulline").

inducible NO synthase [1] = target: T1, inducible NO synthase (Mus musculus, UniProt P29477); experiment: In vitro effect on inducible NO synthase of murine macrophages J774A1 (formation of citrulline); format: biochemical; settings: NO synthase isolated from LPS/IFN-γ activated J774A1 macrophages, pH 7.4
T1 construct: The NO synthase is isolated with an extraction buffer; endogenous in cells; sonicated, 100,000 g ultracentrifuged extract
Experimental: 2) In vitro effect on inducible NO synthase of murine macrophages J774A1
Murine macrophages J774A1 produce a large quantity of nitrogen monoxide after activation by lipopolysaccharides (LPS) and interferon-γ(IFN-γ). The cells are cultivated in DMEM medium (Dulbecco's Modified Eagle Medium) enriched with 10% foetal calf serum at 37° C. under an atmosphere of 5% CO2 after activation by LPS and IFN-γ. They are seeded in a quantity of 5000 cells/cm^2 in 150 cm^2 bottles. The incubations are carried out in the presence of LPS (1g/ml) and murine IFN-γ (50 U/ml) in DMEM enriched with 10% foetal calf serum. The NO synthase is isolated with an extraction buffer (HEPES 50 mM, pH 7.4, dithiothreitol 0.5 mM, pepstatin A 1 mg/ml, leupeptin 1 mg/ml, soya trypsin inhibitor 1 mg/ml, antipain 1 mg/ml, and PMSF 10 mg/ml). After sonication in the extraction buffer at 4° C., the homogenised products are ultracentrifuged (100,000 g with 3,5-di-tert.butyl-4-hydroxybenzoic acid 4° C. for 1 h). The protocol is then identical to that of cerebellum NO synthase except for the composition of the incubation buffer (100 mM of HEPES, pH 7.4, 1 mM dithiothreitol, 2.5 mM of CaCl2, 10 M of tetrahydrobiopterin, FAD 10 μM, BSA 1 mg/ml, 2 mM of reduced NADPH).

inducible NO synthase [2] = target: T1, inducible NO synthase; experiment: In vitro effect on the production of nitrites by murine macrophages J774A1; format: cell-based; settings: J774A1 cells, LPS 1 μg/ml + IFN-γ 50 U/ml, 48 hours; read-out: IC50 Inducible NO synthase (formation of nitrites)
Experimental: 3) In vitro effect on the production of nitrites by murine macrophages J774A1
This test is used to measure the inhibitory activity of the products on inducible NO synthase of culture cells. The cells are cultivated in DMEM medium (Dulbecco's Modified Eagle Medium) enriched with 10% foetal calf serum at 37° C. under an atmosphere of 5% CO2. For the experiments, they are distributed in 96-well plates (50,000 cells per well) and incubated in DMEM without phenol red containing 10% foetal calf serum with LPS (1 μg/ml) and murine IFN-γ(50 U/ml) in the presence or absence of the products to be tested. After 48 hours, the concentration of nitrites in the culture media, degradation products of nitrogen monoxide, is measured by a colorimetric method according to Green et al. (Analytical Biochemistry, 126, 131-138 (1982)). The results are expressed in terms of the IC50 value and are summarised in the table of paragraph 2 (third column of results entitled "inducible NO synthase, formation of nitrites").

[3] = test system: production of superoxide anions by J774A1 cells; experiment: In vitro effect on the formation of superoxide anions (PMA-activated J774A1 cells, luminol chemiluminescence); format: cell-based, murine
Experimental: 4) In vitro effect on the formation of superoxide anions
The activation of the macrophage cells J774A1 by phorbol myristate acetate (PMA) leads to the production of superoxide anions in a few minutes. These superoxide anions are able to oxidise a luminescent substrate, luminol. This reaction generates photons, the production of which is measured by means of a chemiluminometer. The effects of the products on the production of superoxide anions are tested by incubating the J774A1 cells at 37° C. in the presence of PMA, products to be tested, and luminol. The results are expressed in terms of the IC50 value.

[4] = Example 2, i.p., A 10 mg/kg (NS), B 20 mg/kg (NS), AB: A 10 mg/kg and B 20 mg/kg (** very significant), control 270.4 ± 30.05
[5] = Example 2, i.p., A 10 mg/kg, B 20 mg/kg, AB: A 10 mg/kg and B 20 mg/kg
[6] = 3,5-di-tert-butyl-4-hydroxybenzoic acid 20 mg/kg, aminoguanidine, their combination
[7] = Example 1, i.p. 4 h and 24 h after, A 30 mg/kg (NS), B 20 mg/kg (NS), AB 50 mg/kg (** very significant), control 270.4 ± 30.05
[8] = Example 1, i.p., A 30 mg/kg, B 20 mg/kg, AB 50 mg/kg
[9] = Example 3, A 0.03 mg/kg i.v. (NS), B 20 mg/kg i.p. (NS), AB: A 0.03 mg/kg i.v. and B 20 mg/kg i.p. (** very significant), control 237.68 ± 31.51
[10] = Example 3, A 0.03 mg/kg i.v., B 20 mg/kg i.p., AB: A 0.03 mg/kg i.v. and B 20 mg/kg i.p.

Structure (SMILES): O=[N+]([O-])c1cccc2cn[nH]c12 [Example 2 A, 7-nitroindazole]
- protection of the animals from ischaemia (in words) (focal cerebral ischaemia; 7-nitroindazole 10 mg/kg, combined with 3,5-di-tert-butyl-4-hydroxybenzoic acid): not significantly active
- Volume of infarct (focal cerebral ischaemia; [4]): 238.9 ± 27.08
- % Protection (focal cerebral ischaemia; [5]): 11.7%

Structure (SMILES): CC(C)(C)c1cc(C(=O)O)cc(C(C)(C)C)c1O.N=C(N)NN [Example 1 AB]
- IC50 (constitutive NO synthase; read-out: IC50 Constitutive NO synthase (formation of citrulline), rat cerebellum homogenate, pH 7.4, 15 min): > 300 µM
- IC50 (inducible NO synthase [1]): 57 µM
- IC50 (inducible NO synthase [2]): 26 µM
- IC50 ([3]; 37° C.): 30 µM
- protection of the animals from ischaemia (in words) (focal cerebral ischaemia; [6]): protects the animals from ischaemia in a highly significant manner
- Volume of infarct (focal cerebral ischaemia; [7]): 89.6 ± 22.42
- % Protection (focal cerebral ischaemia; [8]): 63.2%

Structure (SMILES): N=C(N)NN [Example 1 A, aminoguanidine]
- IC50 (constitutive NO synthase): > 300 µM
- IC50 (inducible NO synthase [1]): 29 µM
- IC50 (inducible NO synthase [2]): 22 µM
- IC50 formation of superoxide anions ([3]; 37° C.): inactive
- protection of the animals from ischaemia (in words) (focal cerebral ischaemia; [6]): low activity
- Volume of infarct (focal cerebral ischaemia; [7]): 233 ± 30.15
- % Protection (focal cerebral ischaemia; [8]): 13.8%

Structure (SMILES): N=C(NCCC[C@H](N)C(=O)O)N[N+](=O)[O-] [Example 3 A, NGnitroarginine]
- Volume of infarct (focal cerebral ischaemia; [9]): 238.14 ± 35.94
- % Protection (focal cerebral ischaemia; [10]): 0%
- protection of the animals from ischaemia (in words) (focal cerebral ischaemia; nitroarginine 0.03 mg/kg, combined with i.p. 3,5-di-tert-butyl-4-hydroxybenzoic acid): not significantly active

Structure (SMILES): CC(C)(C)c1cc(C(=O)O)cc(C(C)(C)C)c1O [Example 1 B, 3,5-di-tert-butyl-4-hydroxybenzoic acid]
- IC50 ([3]; Mus musculus, J774.A1, 37° C.): 30 µM
- protection of the animals from ischaemia (in words) (focal cerebral ischaemia; [6]): inactive
- Volume of infarct (focal cerebral ischaemia; [7]): 250.9 ± 37.86
- % Protection (focal cerebral ischaemia; [8]): 7.1%
- Volume of infarct (focal cerebral ischaemia; [4]): 250.9 ± 37.86
- % Protection (focal cerebral ischaemia; [5]): 7.1%
- Volume of infarct (focal cerebral ischaemia; [9]): 222.9 ± 7.34
- % Protection (focal cerebral ischaemia; [10]): 6.2%
